Measurements: ChEMBL document CHEMBL1275310, “Synthesis and screening of some novel fused thiophene and thienopyrimidine derivatives for anti-avian influenza virus (H5N1) activity” (2010)

Columns and labels:
Type in all cases: functional
[1] = tested on: Influenza A virus; assay: Antiviral activity against Influenza A virus (A/chicken/Egypt/1/2006 (H5N1)) infected in MDCK cells assessed as virus-induced cytopathogenicity at 5 ug after 3 to 4 days by plaque reduction assay
[2] = tested on: Influenza A virus; assay: Antiviral activity against Influenza A virus (A/chicken/Egypt/1/2006 (H5N1)) infected in MDCK cells assessed as virus-induced cytopathogenicity at 10 ug after 3 to 4 days by plaque reduction assay
[3] = tested on: Influenza A virus; assay: Antiviral activity against Influenza A virus (A/chicken/Egypt/1/2006 (H5N1)) infected in MDCK cells assessed as virus-induced cytopathogenicity at 20 ug after 3 to 4 days by plaque reduction assay
[4] = tested on: Influenza A virus; assay: Antiviral activity against Influenza A virus (A/chicken/Egypt/1/2006 (H5N1)) infected in MDCK cells assessed as virus-induced cytopathogenicity at 40 ug after 3 to 4 days by plaque reduction assay

| Structure (SMILES) | inhibition (INH) [1] [%] | inhibition (INH) [2] [%] | inhibition (INH) [3] [%] | inhibition (INH) [4] [%] |
| --- | --- | --- | --- | --- |
| O=c1[nH]c(=O)c2c3c(sc2[nH]1)CCc1ccccc1-3 | 92 | 94 | 95 | 98 |
| O=c1[nH]c(=S)[nH]c2sc3c(c12)-c1ccccc1CC3 |  |  |  | 65 |
| NC(=O)c1c(N)sc2c1-c1ccccc1CC2 |  |  |  | 89 |
